Assay results: patent US20210324281A1, “FUEL DERIVED FROM RENEWABLE RESOURCES” (priority 2018, published 2021)

Legend:
Escherichia coli = test: Modified broth dilution in biphasic biofuel (Plantanol)/water system, turbidity at 600 nm; format: cell-based; conditions: for bacterial growth (turbidity of the aqueous phase) / effect on bacterial growth compared with Staphylococcus aureus: FIG. 19; for effect on bacterial growth compared with Staphylococcus aureus: in Plantanol with solketal; for microbial growth (turbidity of the aqueous phase): FIG. 21
Source text: (§1) The growth of microbes in the fuel is one of the main problems of biofuels, as set out above. The aim of the experiments was to investigate the bacterial growth in the biphasic biofuel/water system to see how the addition of an antimicrobial additive to the biofuel has an impact on the microbial growth in the aqueous bacteria solution. For this purpose, the so-called “broth dilution” method was modified and applied to the biphasic (biofuel+additive)/(water+bacteria) system.
(§2) This method represents a standard test for the investigation of bactericidal substances (e.g. antibiotics). At first, bacteria are incorporated in water that contains a nutrient medium (e.g. blood or yeast extracts). The potential antimicrobial agents are then added to the bacteria solution and the mixture is incubated over night at a certain temperature.
(§3) The concentration of bacteria can be measured by means of photometric spectroscopy as the presence of bacteria in a solution lead to turbidity. The higher the turbidity, the more bacteria are present in the solution. […] In some cases, the turbidity even decreases (=bacteria die).
(§4) The above-mentioned method was modified and applied to the biofuel/water system. For this purpose, there was one type of gram-negative (Escherichia coli) and gram-positive bacteria (Staphylococcus aureus) incorporated in each aqueous medium. The so-called “LB-medium” (lysogeny broth) was used as the nutrient medium. The biofuel (with and without additive) was then added to the bacteria solution leading to a phase separation of the biofuel (top) and aqueous medium (bottom).
(§5) The samples were incubated in a so-called incubator shaker, to ensure a good mixing of the two phases. Thereafter, the samples were taken out of the incubator and it was waited until complete phase separation occurred (˜30 minutes). Lastly, the aqueous phase was transferred and measured photometrically at a wavelength of A=600 nm.
(§6) Thus, the turbidity of the aqueous phase solely arises from the bacteria's presence in the water. Depending on the magnitude of the turbidity, it can be concluded whether and how the addition of a certain compound to the biofuel affects the bacterial growth in the aqueous medium.
(§7) For this purpose, different concentrations of antimicrobial substances were added to the biofuel and the effect of these substances on the turbidity of the samples was investigated. On the one hand, hydrophobic, biofuel-soluble bactericides were used (Eugenol, Carvacrol) and on the other hand hydrophilic, biofuel-insoluble substances (caffeic acid, gallic acid, ferulic acid) were used. The glycerol derivative solketal was used to make the hydrophilic substances soluble in the biofuel.
(§8) The chosen concentrations for Grotamar82 and Liqui Moly were the ones recommended by the manufacturer. For both products, there is a recommended concentration for prevention of diesel bug as well as a recommended “shock dosage” in case of an already existing microbial contamination. 1000 ppm of Grotamar82 as well 5000 ppm of the product by Liqui Moly are recommended as a “shock dosage” while 250 ppm and 1000 ppm are recommended to achieve an effective protection against diesel bug.
(§9) Additionally, formaldehyde was added to the Plantanol as the kinetics of the hydrolysis of MBO (cf. the above scheme) in Grotamar82 were not known. Grotamar82 contains about 20% of MBO, according to the manufacturer. Thus, a complete hydrolysis of the MBO in 250 ppm and 1000 ppm Grotamar82 would result in the production of 50 ppm and 200 ppm of formaldehyde respectively.

Staphylococcus aureus = test: as above; format: cell-based; conditions: for amount needed relative to ferulic acid to achieve the same effect: 10 wt.-% versus 0.25 wt.-% ferulic acid in Plantanol; for absorbance of the aqueous phase after incubation: medium pre-incubation 0.12, FIG. 20
Source text: as §1, §2, §3, §4, §5, §6, §7, §8, §9

[1] = RapidOxy oxidative stability measurement (DIN EN 16091, 140° C., 700 kPa oxygen); format: physicochemical; conditions: for oxidative stability standard according to EN 14214: 500 ppm in Plantanol with 1 wt.-% solketal, FIG. 15; for oxidative stability of the single, pure component: standard: induction time above 33.3 min, FIG. 8
Experimental: In this method, the pressure of a closed, with oxygen filled and afterwards heated sample chamber is measured against time. […] Therefore, the samples are heated up to 140° C. with an oxygen pressure of 700 kPa. […] The incubation time is the period between the start of the experiment and until the pressure dropped by 10% compared to the maximum pressure in the sample chamber. In FIG. 8 etc., this limit is indicated by a dashed line.
For this purpose, the samples were heated up to 140° C. at 700 kPa in an oxygen atmosphere. Thereafter the device measured the pressure with respect to the time. The measurement automatically stopped once a decrease of the pressure of 10% occurred. The time needed for this decrease by 10% is called “induction time” and represents a characteristic quantity for the oxidative stability of a fuel. The quantity “ppm” (parts per million) in the present experimental examples refers to a molar ratio (n/n), if not stated otherwise.

[2] = Solubilisation of hydrophilic antioxidants in biofuel by glycerol derivatives; format: physicochemical
Experimental: As a proof of concept, analogous experiments were carried out with the biofuel “Plantanol” from industry. […] The samples were prepared by dissolving the respective antioxidants in solketal.

[3] = 330 ppm in 63/27/10 biodiesel (FAME)/rapeseed oil/solketal, FIG. 14
[4] = 0.1-0.25 wt.-% in Plantanol, solubilised with solketal, FIG. 18
[5] = 333 ppm in 63/27/10 FAME/rapeseed oil/solketal, FIG. 16

For Cc1ccc(C(C)C)cc1O [Carvacrol, reference compound], which “bacterial growth (turbidity of the aqueous phase)” value (Escherichia coli; 10 wt.-% in Plantanol) is on record?
Its value is “distinctly reduced it”.

And the “bacterial growth (turbidity of the aqueous phase)” value (Staphylococcus aureus; 2 wt.-% in Plantanol, FIG. 18)?
The value was “no effect on the bacterial growth”.

What about the “bacterial growth (turbidity of the aqueous phase)” value (Staphylococcus aureus; 10 wt.-% in Plantanol, FIG. 18) of the same compound?
Its value is “completely inhibited the growth”.

What about the “amount needed relative to ferulic acid to achieve the same effect” value (Staphylococcus aureus) of the same compound?
Its value is 40 times.

With C=CCc1ccc(O)c(OC)c1 [Eugenol, reference compound] as the compound, how does the “bacterial growth (turbidity of the aqueous phase)” value (Escherichia coli; 10 wt.-% in Plantanol) read?
The value was “distinctly reduced it”.

What about the “bacterial growth (turbidity of the aqueous phase)” value (Staphylococcus aureus; 2 wt.-% in Plantanol, FIG. 18) of the same compound?
The value was “no effect on the bacterial growth”.

What about the “bacterial growth (turbidity of the aqueous phase)” value (Staphylococcus aureus; 10 wt.-% in Plantanol, FIG. 18) of the same compound?
Its value is “completely inhibited the growth”.

And the “amount needed relative to ferulic acid to achieve the same effect” value (Staphylococcus aureus)?
Its value is 40 times.

With CC(C)(C)c1cc(O)ccc1O [TBHQ, 2-tert-butyl hydroquinone, reference compound] as the compound, how does the “oxidative stability standard according to EN 14214” value [1] read?
Its value is “not reached”.

For CCCC(=O)OCC(COC(=O)CCC)OC(=O)CCC [Tributyrin, glycerol tributyrate], which “oxidative stability of the single, pure component” value [1] is on record?
The value was “insensitive toward oxidation”.

Which results are given for O=C(O)/C=C/c1ccc(O)c(O)c1 [caffeic acid]?
amount of solketal found preferable to solubilize the additive ([2]; 0.1 wt % of additive in Plantanol): up to 10 wt %; oxidative stability of the biofuel (EN 14214) [1, 3]: enough to make the biofuel fulfil the standard; effect on bacterial growth compared with Staphylococcus aureus (Escherichia coli): smaller effect on the E.-coli bacteria than they had on the Staphylococcus aureus; bacterial growth (turbidity of the aqueous phase) (Staphylococcus aureus; [4]): distinctly reduced

Which “microbial growth (turbidity of the aqueous phase)” value (“microbial growth” for short) (Escherichia coli; 0.1 wt % in solketal, in Plantanol) does the source give for COc1cc(/C=C/C(=O)O)ccc1O [ferulic acid] here?
The value was “significantly decreased microbial growth”.

What about the “microbial growth” value (Escherichia coli; 0.25 wt % in Plantanol) of the same compound?
The value was “No growth of bacteria was observable”.

What about the “bacterial growth (turbidity of the aqueous phase)” value (Escherichia coli; 0.25 wt.-% in Plantanol) of the same compound?
The value was “distinctly reduced it”.

What about the “microbial growth” value (Escherichia coli; 0.50 wt % in Plantanol) of the same compound?
The value was “No growth of bacteria was observable”.

And the “bacterial growth (turbidity of the aqueous phase)” value (Staphylococcus aureus; 0.1 wt % dissolved in solketal, in Plantanol, FIG. 20)?
Its value is “drastically decreases”.

What about the “absorbance of the aqueous phase after incubation” value (Staphylococcus aureus; 0.25 wt % in solketal/Plantanol) of the same compound?
Its value is “below 0.12”.

And the “bacterial growth (turbidity of the aqueous phase)” value (Staphylococcus aureus; 0.25 wt.-% in Plantanol, FIG. 18)?
Its value is “complete inhibition”.

What about the “absorbance of the aqueous phase after incubation” value (Staphylococcus aureus; 0.5 wt % in solketal/Plantanol) of the same compound?
Its value is “below 0.12”.

With O=C(O)c1cc(O)c(O)c(O)c1 [gallic acid] as the compound, how does the “amount of solketal sufficient to solubilize the additive” value ([2]; 500 ppm of additive in Plantanol) read?
Its value is under 0.5 wt %.

What about the “oxidative stability of the biofuel (EN 14214)” value [1, 3] of the same compound?
Its value is “enough to make the biofuel fulfil the standard”.

And the “oxidative stability of the biofuel (EN 14214)” value [1, 5]?
The value was “stabilization above the minimum of EN 14214”.

What about the “induction time versus concentration, ranking” value ([1]; solketal system, higher concentrations, FIG. 11) of the same compound?
The value was “most effective”.

What about the “effect on bacterial growth compared with Staphylococcus aureus” value (Escherichia coli) of the same compound?
Its value is “smaller effect on the E.-coli bacteria than they had on the Staphylococcus aureus”.

And the “bacterial growth (turbidity of the aqueous phase)” value (Staphylococcus aureus; [4])?
The value was “distinctly reduced”.

Which results are given for Oc1ccc(O)cc1 [hydroquinone, reference compound]?
oxidative stability of the biofuel ([1]; 0.2 wt.-% in solketal system (60 wt.-% FAME, 30 wt.-% rapeseed oil, 10 wt.-% solketal), FIG. 9): distinctly increased; oxidative stability of the biofuel ([1]; 160 ppm in solketal system (60/30/10), FIG. 9): not enough to fulfill the standard; oxidative stability of the biofuel (EN 14214) [1, 3]: enough to make the biofuel fulfil the standard; oxidative stability standard according to EN 14214 [1]: not reached

Which “oxidative stability of the biofuel (EN 14214)” value [1, 3] does the source give for OCCc1ccc(O)c(O)c1 [hydroxytyrosol] here?
Its value is “enough to make the biofuel fulfil the standard”.

What about the “oxidative stability of the biofuel (EN 14214)” value [1, 5] of the same compound?
Its value is “stabilization above the minimum of EN 14214”.

Which “oxidative stability of the biofuel” value ([1]; tributyrin system (60 wt.-% FAME, 30 wt.-% rapeseed oil, 10 wt.-% tributyrin), FIG. 12) does the source give for CCCOC(=O)c1cc(O)c(O)c(O)c1 [propyl gallate] here?
The value was “the higher the concentration of the antioxidant, the better the stability toward oxidation is”.

With O=c1c(O)c(-c2ccc(O)c(O)c2)oc2cc(O)cc(O)c12 [quercetin] as the compound, how does the “oxidative stability of the biofuel (EN 14214)” value [1, 3] read?
The value was “enough to make the biofuel fulfil the standard”.

For CC1(C)OCC(CO)O1 (stereo not shown) [solketal, isopropylideneglycerol], which “oxidative stability of the single, pure component” value [1] is on record?
Its value is “oxidised nearly as fast as 2-methylfuran”.

Which “effect of addition on oxidative stability” value (shortened to “effect of addition”) ([1]; 167 ppm added to the system containing 333 ppm DHB, FIG. 16) does the source give for O=C1O[C@H]([C@@H](O)CO)C(O)=C1O [vitamin C, ascorbic acid] here?
The value was “no effect on the overall stability”.

And the “effect of addition” value ([1]; 167 ppm added to the system containing 333 ppm GA, FIG. 16)?
The value was “distinct increase of the oxidative stability”.

And the “effect of addition” value ([1]; 167 ppm added to the system containing 333 ppm HT, FIG. 16)?
The value was “distinct increase of the oxidative stability”.
